{
  "source": "patent US20050220865A1",
  "about": "“Compressed composition comprising magnesium salt” (priority 2004, published 2005)",
  "key": {"[1]": {"details": "cited from earlier work; for USP 27/NF22 Solubility: USP 27/NF22 solubility term"}, "[2]": {"assay": "Storage stability of USP <711> dissolution profile at 40° C. and 75% relative humidity", "assay_type": "physicochemical", "details": "FIG. 4; stored at 40° C. and 75% relative humidity up to 2 months; protected from moisture", "experimental": "By “pharmaceutically acceptable storage conditions” is meant storage at 25° C. and 60% relative humidity (RH) in a tight, sealed container-enclosure system. The storage conditions employed herein (40° C. and 75% RH) in evaluating formulations are used in the pharmaceutical industry to conduct accelerated stability testing of formulations such that a period of 2 months under these conditions is generally accepted to equal a period of 1 year under pharmaceutically acceptable storage conditions (25° C. and 60% relative humidity).\n(§1) USP 27/NF22 specification for magnesium oxide tablets is not less than 75% (O) of the labeled amount of MgO is dissolved in 45 minutes. Dissolution testing is performed using apparatus II with 900 mL of 0.1 N hydrochloric acid maintained at 37° C. and agitated at 75 rpm. Samples are withdrawn at after 45 minutes of testing. The amount of MgO dissolved is then determined using atomic absorption (AA) spectrophotometry at a wavelength of 285.2 nm using filtered portions of the solution under test, diluted with Dissolution Medium. A standard curve is generated using a magnesium standard solution of known concentration in the same medium.\nThe initial dissolution profile for each of the prior art and present formulations is determined as described herein. […] At monthly intervals, the dissolution profile of the formulations is determined again. […]"}, "[3]": {"assay": "Magnesium oxide tablet monograph USP <711> dissolution", "assay_type": "physicochemical", "details": "FIG. 5; binary mixture of heavy grade magnesium oxide, USP with excipient", "experimental": "The following drawings are given by way of illustration only, and thus are not intended to limit the scope of the present invention. The USP27/NF22 monograph for magnesium oxide tablets specifies that the dissolution method is to be executed using the general conditions of chapter <711> with 900 mL of 0.1 N hydrochloric acid, a paddle rotation speed of 75 RPM, and a sampling timepoint of 45 minutes.\nas §1"}},
  "data": [
    {"molecule": "[F-].[F-].[Mg+2]", "note": "[MgF2]", "values": [
      {"measurement": "USP 27/NF22 Solubility", "setting": "[1]", "result": "Practically Insoluble"},
      {"measurement": "Solubility in Neutral Water", "setting": "[1]", "result": 0.0002, "unit": "g/100 mL"}
    ]},
    {"molecule": "[O]=[Mg]", "note": "[MgO, magnesium oxide, reference compound]", "values": [
      {"measurement": "dissolution of magnesium from pure magnesium oxide", "setting": "[2]", "result": "suitable dissolution"},
      {"measurement": "USP 27/NF22 Solubility", "setting": "[1]", "result": "Practically Insoluble"},
      {"measurement": "Solubility in Neutral Water", "setting": "[1]", "result": 0.00062, "unit": "g/100 mL"}
    ]},
    {"molecule": "O=C([O-])CC(O)(CC(=O)[O-])C(=O)[O-].[Na+].[Na+].[Na+]", "note": "[sodium citrate]", "values": [
      {"measurement": "influence of excipient on dissolution of magnesium", "setting": "[3]", "result": "decrease dissolution"}
    ]},
    {"molecule": "potassium phosphate", "values": [
      {"measurement": "influence of excipient on dissolution of magnesium", "setting": "[3]", "result": "decrease dissolution"}
    ]}
  ]
}
